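Each compound was tested at five concentrations against cells in 96-well plates for 48 hours. TGI marks complete inhibition of growth.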
Experiments:
Assay in all cases: NCI-60 cell line screen, 48 h
TK-10 renal = test system: TK-10 renal
HCC-2998 colon = test system: HCC-2998 colon
UACC-257 melanoma = test system: UACC-257 melanoma
MOLT-4 leukemia = test system: MOLT-4 leukemia
SN12C renal = test system: SN12C renal
SNB-19 CNS = test system: SNB-19 CNS
A498 renal = test system: A498 renal
OVCAR-8 ovarian = test system: OVCAR-8 ovarian
SF-539 CNS = test system: SF-539 CNS
OVCAR-3 ovarian = test system: OVCAR-3 ovarian
SW-620 colon = test system: SW-620 colon
SF-295 CNS = test system: SF-295 CNS
K-562 leukemia = test system: K-562 leukemia
DLD-1 colon = test system: DLD-1 colon
HOP-92 NSCLC = test system: HOP-92 NSCLC
HT29 colon = test system: HT29 colon
HL-60(TB) leukemia = test system: HL-60(TB) leukemia
786-0 renal = test system: 786-0 renal
NCI-H23 lung = test system: NCI-H23 lung
DMS 114 small cell lung = test system: DMS 114 small cell lung
LOX IMVI melanoma = test system: LOX IMVI melanoma
A549 NSCLC = test system: A549 NSCLC
IGROV1 ovarian = test system: IGROV1 ovarian
SK-MEL-2 melanoma = test system: SK-MEL-2 melanoma
SK-MEL-5 melanoma = test system: SK-MEL-5 melanoma
HCT-15 colon = test system: HCT-15 colon
RXF 393 renal = test system: RXF 393 renal
XF 498 CNS = test system: XF 498 CNS
KM12 colon = test system: KM12 colon
EKVX NSCLC = test system: EKVX NSCLC
M14 melanoma = test system: M14 melanoma
OVCAR-4 ovarian = test system: OVCAR-4 ovarian
HCT-116 colon = test system: HCT-116 colon
NCI-H522 lung = test system: NCI-H522 lung
NCI-H460 lung = test system: NCI-H460 lung
M19-MEL melanoma = test system: M19-MEL melanoma
U251 CNS = test system: U251 CNS
SNB-78 CNS = test system: SNB-78 CNS
MALME-3M melanoma = test system: MALME-3M melanoma
CAKI-1 renal = test system: CAKI-1 renal
CCRF-CEM leukemia = test system: CCRF-CEM leukemia
DMS 273 small cell lung = test system: DMS 273 small cell lung
UACC-62 melanoma = test system: UACC-62 melanoma
COLO 205 colon = test system: COLO 205 colon
HOP-62 NSCLC = test system: HOP-62 NSCLC
RPMI-8226 leukemia = test system: RPMI-8226 leukemia
LXFL 529 NSCLC = test system: LXFL 529 NSCLC
SK-OV-3 ovarian = test system: SK-OV-3 ovarian
UO-31 renal = test system: UO-31 renal
SK-MEL-28 melanoma = test system: SK-MEL-28 melanoma
MDA-MB-231 breast = test system: MDA-MB-231 breast
T-47D breast = test system: T-47D breast
HS 578T breast = test system: HS 578T breast
MCF7 breast = test system: MCF7 breast
NCI-H226 lung = test system: NCI-H226 lung
DU-145 prostate = test system: DU-145 prostate
SF-268 CNS = test system: SF-268 CNS
PC-3 prostate = test system: PC-3 prostate
ACHN renal = test system: ACHN renal
MDA-N = test system: MDA-N
OVCAR-5 ovarian = test system: OVCAR-5 ovarian
MDA-MB-435 = test system: MDA-MB-435
NCI/ADR-RES ovarian = test system: NCI/ADR-RES ovarian
SR leukemia = test system: SR leukemia
BT-549 breast = test system: BT-549 breast
SNB-75 CNS = test system: SNB-75 CNS

Question: Which results are given for `CC1CC2(CCC1OCc1ccccc1)OCCO2` (configuration not stated)?
Answer: TGI (TK-10 renal): > 100 µM; TGI (HCC-2998 colon): > 100 µM; TGI (UACC-257 melanoma): > 100 µM; TGI (MOLT-4 leukemia): > 100 µM; TGI (SN12C renal): > 100 µM; TGI (SNB-19 CNS): > 100 µM; TGI (A498 renal): > 100 µM; TGI (OVCAR-8 ovarian): > 100 µM; TGI (SF-539 CNS): > 100 µM; TGI (OVCAR-3 ovarian): > 100 µM; TGI (SW-620 colon): > 100 µM; TGI (SF-295 CNS): > 100 µM; TGI (K-562 leukemia): > 100 µM; TGI (DLD-1 colon): > 100 µM; TGI (HOP-92 NSCLC): > 100 µM; TGI (HT29 colon): > 100 µM; TGI (HL-60(TB) leukemia): > 100 µM; TGI (786-0 renal): > 100 µM; TGI (NCI-H23 lung): > 100 µM; TGI (DMS 114 small cell lung): > 100 µM; TGI (LOX IMVI melanoma): > 100 µM; TGI (A549 NSCLC): > 100 µM; TGI (IGROV1 ovarian): > 100 µM; TGI (SK-MEL-2 melanoma): > 100 µM; TGI (SK-MEL-5 melanoma): > 100 µM; TGI (HCT-15 colon): > 100 µM; TGI (RXF 393 renal): > 100 µM; TGI (XF 498 CNS): > 100 µM; TGI (KM12 colon): > 100 µM; TGI (EKVX NSCLC): > 100 µM; TGI (M14 melanoma): > 100 µM; TGI (OVCAR-4 ovarian): > 100 µM; TGI (HCT-116 colon): > 100 µM; TGI (NCI-H522 lung): > 100 µM; TGI (NCI-H460 lung): > 100 µM; TGI (M19-MEL melanoma): > 100 µM; TGI (U251 CNS): > 100 µM; TGI (SNB-78 CNS): > 100 µM; TGI (MALME-3M melanoma): > 100 µM; TGI (CAKI-1 renal): > 100 µM; TGI (CCRF-CEM leukemia): > 100 µM; TGI (DMS 273 small cell lung): > 100 µM; TGI (UACC-62 melanoma): > 100 µM; TGI (COLO 205 colon): > 100 µM; TGI (HOP-62 NSCLC): > 100 µM; TGI (RPMI-8226 leukemia): > 100 µM; TGI (LXFL 529 NSCLC): > 100 µM; TGI (SK-OV-3 ovarian): > 100 µM; TGI (UO-31 renal): > 100 µM

Question: `O=[N+]([O-])c1ccc(N=Nc2c(O)[nH]c3ccccc23)cc1` was tested. Which TGI (TK-10 renal) did it give?
Answer: Its TGI is greater than 51.2 µM.

Question: What about the TGI (HCC-2998 colon) of the same compound?
Answer: Its TGI is greater than 100 µM.

Question: And the TGI (UACC-257 melanoma)?
Answer: The TGI was greater than 60.1 µM.

Question: What about the TGI (SK-MEL-28 melanoma) of the same compound?
Answer: The TGI was greater than 100 µM.

Question: And the TGI (MDA-MB-231 breast)?
Answer: The TGI was greater than 58.9 µM.

Question: What about the TGI (MOLT-4 leukemia) of the same compound?
Answer: The TGI was greater than 100 µM.

Question: What about the TGI (T-47D breast) of the same compound?
Answer: The TGI was 35.8 µM.

Question: What about the TGI (SN12C renal) of the same compound?
Answer: Its TGI is greater than 100 µM.

Question: What about the TGI (SNB-19 CNS) of the same compound?
Answer: The TGI was greater than 100 µM.

Question: What about the TGI (HS 578T breast) of the same compound?
Answer: The TGI was 51.6 µM.

Question: What about the TGI (MCF7 breast) of the same compound?
Answer: The TGI was greater than 100 µM.

Question: What about the TGI (A498 renal) of the same compound?
Answer: Its TGI is 39.5 µM.

Question: What about the TGI (OVCAR-8 ovarian) of the same compound?
Answer: The TGI was 48.3 µM.

Question: And the TGI (NCI-H226 lung)?
Answer: Its TGI is 51.5 µM.

Question: And the TGI (SF-539 CNS)?
Answer: Its TGI is 9.36 µM.

Question: What about the TGI (OVCAR-3 ovarian) of the same compound?
Answer: Its TGI is 35.2 µM.

Question: What about the TGI (SW-620 colon) of the same compound?
Answer: The TGI was greater than 100 µM.

Question: What about the TGI (SF-295 CNS) of the same compound?
Answer: The TGI was 48.7 µM.

Question: What about the TGI (K-562 leukemia) of the same compound?
Answer: Its TGI is greater than 84.6 µM.

Question: What about the TGI (DU-145 prostate) of the same compound?
Answer: The TGI was 36.4 µM.

Question: And the TGI (SF-268 CNS)?
Answer: The TGI was 58.7 µM.

Question: And the TGI (PC-3 prostate)?
Answer: Its TGI is greater than 100 µM.

Question: And the TGI (HT29 colon)?
Answer: The TGI was greater than 100 µM.

Question: And the TGI (HL-60(TB) leukemia)?
Answer: The TGI was greater than 77.8 µM.

Question: And the TGI (786-0 renal)?
Answer: The TGI was 61.7 µM.

Question: And the TGI (NCI-H23 lung)?
Answer: The TGI was greater than 100 µM.

Question: What about the TGI (LOX IMVI melanoma) of the same compound?
Answer: Its TGI is greater than 96.3 µM.

Question: What about the TGI (A549 NSCLC) of the same compound?
Answer: Its TGI is greater than 100 µM.

Question: What about the TGI (ACHN renal) of the same compound?
Answer: The TGI was 26.3 µM.

Question: And the TGI (IGROV1 ovarian)?
Answer: Its TGI is 41.4 µM.

Question: And the TGI (SK-MEL-2 melanoma)?
Answer: The TGI was greater than 100 µM.

Question: What about the TGI (SK-MEL-5 melanoma) of the same compound?
Answer: Its TGI is greater than 77.3 µM.

Question: What about the TGI (HCT-15 colon) of the same compound?
Answer: Its TGI is greater than 100 µM.

Question: And the TGI (RXF 393 renal)?
Answer: Its TGI is 35.4 µM.

Question: What about the TGI (MDA-N) of the same compound?
Answer: Its TGI is greater than 100 µM.

Question: What about the TGI (KM12 colon) of the same compound?
Answer: Its TGI is greater than 100 µM.

Question: What about the TGI (EKVX NSCLC) of the same compound?
Answer: The TGI was greater than 72.1 µM.

Question: And the TGI (M14 melanoma)?
Answer: The TGI was greater than 100 µM.

Question: And the TGI (OVCAR-4 ovarian)?
Answer: Its TGI is 57.6 µM.

Question: What about the TGI (HCT-116 colon) of the same compound?
Answer: The TGI was greater than 96.4 µM.

Question: And the TGI (NCI-H522 lung)?
Answer: Its TGI is 34.6 µM.

Question: And the TGI (NCI-H460 lung)?
Answer: Its TGI is greater than 100 µM.

Question: And the TGI (U251 CNS)?
Answer: The TGI was greater than 100 µM.

Question: And the TGI (MALME-3M melanoma)?
Answer: The TGI was 45.2 µM.

Question: And the TGI (CAKI-1 renal)?
Answer: The TGI was 40.4 µM.

Question: And the TGI (CCRF-CEM leukemia)?
Answer: Its TGI is greater than 80.1 µM.

Question: And the TGI (OVCAR-5 ovarian)?
Answer: Its TGI is greater than 63.1 µM.

Question: And the TGI (UACC-62 melanoma)?
Answer: Its TGI is greater than 100 µM.

Question: What about the TGI (COLO 205 colon) of the same compound?
Answer: The TGI was greater than 100 µM.

Question: What about the TGI (HOP-62 NSCLC) of the same compound?
Answer: Its TGI is 34 µM.

Question: And the TGI (RPMI-8226 leukemia)?
Answer: Its TGI is greater than 100 µM.

Question: What about the TGI (MDA-MB-435) of the same compound?
Answer: The TGI was greater than 100 µM.

Question: What about the TGI (NCI/ADR-RES ovarian) of the same compound?
Answer: The TGI was 48.5 µM.

Question: What about the TGI (SK-OV-3 ovarian) of the same compound?
Answer: The TGI was 65.3 µM.

Question: And the TGI (SR leukemia)?
Answer: The TGI was 45.9 µM.

Question: And the TGI (BT-549 breast)?
Answer: The TGI was 71.3 µM.

Question: What about the TGI (UO-31 renal) of the same compound?
Answer: The TGI was 39.3 µM.

Question: And the TGI (SNB-75 CNS)?
Answer: The TGI was 42.6 µM.
